Results published in ChEMBL document CHEMBL1909046, “DrugMatrix in vitro pharmacology data”.

How the values were obtained:
[1] = DRUGMATRIX: Atrial Natriuretic Factor (ANF) radioligand binding (ligand: [125I] ANF (rat)); assay type: cell membranes, Cavia porcellus, Dunkin-Hartley, Adrenal gland, Membrane; conditions: Not Active = under 50% inhibition at 10 µM
Calcitonin receptor = molecular target: T1, Calcitonin receptor (Homo sapiens, UniProt P30988); assay type: cell membranes, Membrane; conditions: t47d; also: in other assays of this panel Not Active means under 50% inhibition at 10 µM
T1 sequence (P30988 whole entry): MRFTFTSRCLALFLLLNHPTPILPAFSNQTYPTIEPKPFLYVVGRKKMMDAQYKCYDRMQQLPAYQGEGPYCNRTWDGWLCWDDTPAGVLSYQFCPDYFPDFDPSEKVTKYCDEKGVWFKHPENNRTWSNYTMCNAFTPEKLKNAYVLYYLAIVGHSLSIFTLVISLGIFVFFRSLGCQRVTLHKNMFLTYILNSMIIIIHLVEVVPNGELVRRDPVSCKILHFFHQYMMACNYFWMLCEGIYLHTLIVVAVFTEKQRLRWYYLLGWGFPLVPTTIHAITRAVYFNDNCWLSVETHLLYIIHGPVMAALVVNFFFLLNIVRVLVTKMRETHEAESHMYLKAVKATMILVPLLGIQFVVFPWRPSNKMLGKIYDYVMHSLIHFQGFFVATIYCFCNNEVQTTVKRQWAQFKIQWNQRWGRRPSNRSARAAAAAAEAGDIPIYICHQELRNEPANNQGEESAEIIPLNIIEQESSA

[2] = molecular target: 5-hydroxytryptamine receptor 4 (Cavia porcellus, UniProt O70528); assay type: cell membranes, Dunkin-Hartley, Striatum, Membrane; also: in other assays of this panel Not Active means under 50% inhibition at 10 µM
[3] = molecular target: 5-hydroxytryptamine receptor 6 (Homo sapiens, UniProt P50406); assay type: cell membranes, HeLa, Membrane; conditions: hela; also: in other assays of this panel Not Active means under 50% inhibition at 10 µM
Thromboxane-A synthase = molecular target: T2, Thromboxane-A synthase (Homo sapiens, UniProt P24557); assay: biochemical; assay type: tissue-based, Platelet; conditions: platelet;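 also: enzyme inhibition assay with PGH2 supplied as substrate; in other assays of this panel Not Active means under 50% inhibition at 10 µM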
T2 sequence (P24557 whole entry): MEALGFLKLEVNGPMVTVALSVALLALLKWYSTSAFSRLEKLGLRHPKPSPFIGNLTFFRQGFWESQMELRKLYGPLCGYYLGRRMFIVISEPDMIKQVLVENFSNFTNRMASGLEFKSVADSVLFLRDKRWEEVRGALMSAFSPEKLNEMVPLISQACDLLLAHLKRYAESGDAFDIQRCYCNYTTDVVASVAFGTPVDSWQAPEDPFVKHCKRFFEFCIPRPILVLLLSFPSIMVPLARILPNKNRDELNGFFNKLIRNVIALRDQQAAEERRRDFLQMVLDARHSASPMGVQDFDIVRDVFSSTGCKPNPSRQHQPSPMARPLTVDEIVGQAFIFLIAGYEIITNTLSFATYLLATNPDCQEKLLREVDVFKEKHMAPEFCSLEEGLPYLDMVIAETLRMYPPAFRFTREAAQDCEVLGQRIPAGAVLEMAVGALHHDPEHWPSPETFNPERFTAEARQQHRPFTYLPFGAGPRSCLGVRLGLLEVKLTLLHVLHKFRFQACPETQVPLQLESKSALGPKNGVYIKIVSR

[4] = molecular target: Vascular endothelial growth factor receptor 1 (Homo sapiens, UniProt P17948); assay type: cell-based; conditions: huvec; also: in other assays of this panel Not Active means under 50% inhibition at 10 µM
[5] = molecular target: T3, Vasoactive intestinal polypeptide receptor 1 (Homo sapiens, UniProt P32241); assay type: cell membranes, Membrane; conditions: ht-29; also: in other assays of this panel Not Active means under 50% inhibition at 10 µM
T3 sequence (P32241 whole entry): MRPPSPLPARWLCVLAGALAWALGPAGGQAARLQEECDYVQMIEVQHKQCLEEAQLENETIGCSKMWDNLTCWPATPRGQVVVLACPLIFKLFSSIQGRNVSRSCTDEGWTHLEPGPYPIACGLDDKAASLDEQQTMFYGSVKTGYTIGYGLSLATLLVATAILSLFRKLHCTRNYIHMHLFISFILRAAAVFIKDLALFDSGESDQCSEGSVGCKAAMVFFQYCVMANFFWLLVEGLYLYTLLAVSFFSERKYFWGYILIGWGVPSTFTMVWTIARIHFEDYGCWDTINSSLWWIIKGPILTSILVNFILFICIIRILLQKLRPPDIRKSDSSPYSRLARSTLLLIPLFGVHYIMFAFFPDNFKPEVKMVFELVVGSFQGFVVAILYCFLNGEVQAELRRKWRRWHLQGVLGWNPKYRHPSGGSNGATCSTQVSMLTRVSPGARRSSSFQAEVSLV

[6] = molecular target: T4, C-X-C chemokine receptor type 2 (Homo sapiens, UniProt P25025); assay type: cell membranes, Membrane; conditions: cho-k1; also: in other assays of this panel Not Active means under 50% inhibition at 10 µM
T4 sequence (P25025 whole entry): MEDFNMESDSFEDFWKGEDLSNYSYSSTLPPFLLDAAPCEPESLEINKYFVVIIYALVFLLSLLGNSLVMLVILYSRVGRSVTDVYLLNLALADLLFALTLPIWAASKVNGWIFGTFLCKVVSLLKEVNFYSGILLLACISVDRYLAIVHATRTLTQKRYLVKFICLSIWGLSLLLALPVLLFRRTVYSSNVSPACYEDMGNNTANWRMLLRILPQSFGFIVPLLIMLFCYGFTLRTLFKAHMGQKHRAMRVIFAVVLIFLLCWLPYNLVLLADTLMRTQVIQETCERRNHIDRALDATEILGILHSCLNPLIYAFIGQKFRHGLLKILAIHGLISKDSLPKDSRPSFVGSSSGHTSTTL

[7] = DRUGMATRIX: GABAA, Flunitrazepam, Central radioligand binding (ligand: [3H] Flunitrazepam); assay type: cell membranes, Rattus norvegicus, Wistar, Brain, Membrane; conditions: Not Active = under 50% inhibition at 10 µM
Leukotriene C4 synthase = molecular target: T5, Leukotriene C4 synthase (Cavia porcellus, UniProt A6XA80); assay: biochemical; assay type: tissue-based, Lung
T5 sequence (A6XA80 whole entry): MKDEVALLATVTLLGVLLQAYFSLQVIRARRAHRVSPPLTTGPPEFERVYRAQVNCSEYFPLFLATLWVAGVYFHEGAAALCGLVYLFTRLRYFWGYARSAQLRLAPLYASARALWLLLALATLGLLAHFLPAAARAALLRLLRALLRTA

[8] = molecular target: Matrix metalloproteinase-9 (Homo sapiens, UniProt P14780); assay type: cell-based
Adenosine receptor A1 = molecular target: T6, Adenosine receptor A1 (Homo sapiens, UniProt P30542); assay type: cell membranes, CHO, Membrane; conditions: cho
T6 sequence (P30542 whole entry): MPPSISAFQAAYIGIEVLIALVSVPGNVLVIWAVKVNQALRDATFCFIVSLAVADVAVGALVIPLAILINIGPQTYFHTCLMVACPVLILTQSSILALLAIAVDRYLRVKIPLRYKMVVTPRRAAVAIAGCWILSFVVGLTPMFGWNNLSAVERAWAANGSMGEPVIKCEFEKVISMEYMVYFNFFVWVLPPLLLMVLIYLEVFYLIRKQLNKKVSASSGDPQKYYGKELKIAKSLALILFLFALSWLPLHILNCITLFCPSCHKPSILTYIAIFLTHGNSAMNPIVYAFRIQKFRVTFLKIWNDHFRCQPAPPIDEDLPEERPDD

Cytochrome P450 3A4 = Cytochrome P450 3A4 (Homo sapiens, UniProt P08684); conditions: bti-tn-5b1-4; also: in other assays of this panel Not Active means under 50% inhibition at 10 µM
Cytochrome P450 3A4, sequence (P08684 whole entry): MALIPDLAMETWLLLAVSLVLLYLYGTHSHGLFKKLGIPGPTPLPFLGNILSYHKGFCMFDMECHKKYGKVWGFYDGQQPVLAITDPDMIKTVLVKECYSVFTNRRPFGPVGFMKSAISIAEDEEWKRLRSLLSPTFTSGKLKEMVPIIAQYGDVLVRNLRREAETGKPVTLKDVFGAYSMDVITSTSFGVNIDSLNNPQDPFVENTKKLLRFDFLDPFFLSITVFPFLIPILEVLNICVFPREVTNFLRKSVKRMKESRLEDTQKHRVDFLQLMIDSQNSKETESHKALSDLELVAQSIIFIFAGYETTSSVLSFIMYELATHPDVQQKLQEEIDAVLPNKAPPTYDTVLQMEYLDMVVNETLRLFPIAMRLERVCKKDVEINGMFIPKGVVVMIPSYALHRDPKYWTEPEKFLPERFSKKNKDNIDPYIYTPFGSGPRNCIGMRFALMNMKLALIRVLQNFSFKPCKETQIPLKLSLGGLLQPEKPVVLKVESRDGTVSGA

5-hydroxytryptamine receptor 4, sequence (O70528 whole entry): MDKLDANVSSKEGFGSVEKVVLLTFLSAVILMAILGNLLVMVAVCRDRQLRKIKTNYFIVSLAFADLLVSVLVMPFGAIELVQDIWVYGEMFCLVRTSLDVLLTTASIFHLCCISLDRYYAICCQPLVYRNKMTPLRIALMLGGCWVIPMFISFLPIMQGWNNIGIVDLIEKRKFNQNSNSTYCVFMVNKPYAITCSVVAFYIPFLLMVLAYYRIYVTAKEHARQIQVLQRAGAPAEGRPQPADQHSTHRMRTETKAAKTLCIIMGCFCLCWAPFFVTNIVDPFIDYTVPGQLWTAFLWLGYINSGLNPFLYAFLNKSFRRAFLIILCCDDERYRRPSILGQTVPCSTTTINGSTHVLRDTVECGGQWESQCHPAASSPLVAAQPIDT
Vascular endothelial growth factor receptor 1, sequence (P17948 whole entry): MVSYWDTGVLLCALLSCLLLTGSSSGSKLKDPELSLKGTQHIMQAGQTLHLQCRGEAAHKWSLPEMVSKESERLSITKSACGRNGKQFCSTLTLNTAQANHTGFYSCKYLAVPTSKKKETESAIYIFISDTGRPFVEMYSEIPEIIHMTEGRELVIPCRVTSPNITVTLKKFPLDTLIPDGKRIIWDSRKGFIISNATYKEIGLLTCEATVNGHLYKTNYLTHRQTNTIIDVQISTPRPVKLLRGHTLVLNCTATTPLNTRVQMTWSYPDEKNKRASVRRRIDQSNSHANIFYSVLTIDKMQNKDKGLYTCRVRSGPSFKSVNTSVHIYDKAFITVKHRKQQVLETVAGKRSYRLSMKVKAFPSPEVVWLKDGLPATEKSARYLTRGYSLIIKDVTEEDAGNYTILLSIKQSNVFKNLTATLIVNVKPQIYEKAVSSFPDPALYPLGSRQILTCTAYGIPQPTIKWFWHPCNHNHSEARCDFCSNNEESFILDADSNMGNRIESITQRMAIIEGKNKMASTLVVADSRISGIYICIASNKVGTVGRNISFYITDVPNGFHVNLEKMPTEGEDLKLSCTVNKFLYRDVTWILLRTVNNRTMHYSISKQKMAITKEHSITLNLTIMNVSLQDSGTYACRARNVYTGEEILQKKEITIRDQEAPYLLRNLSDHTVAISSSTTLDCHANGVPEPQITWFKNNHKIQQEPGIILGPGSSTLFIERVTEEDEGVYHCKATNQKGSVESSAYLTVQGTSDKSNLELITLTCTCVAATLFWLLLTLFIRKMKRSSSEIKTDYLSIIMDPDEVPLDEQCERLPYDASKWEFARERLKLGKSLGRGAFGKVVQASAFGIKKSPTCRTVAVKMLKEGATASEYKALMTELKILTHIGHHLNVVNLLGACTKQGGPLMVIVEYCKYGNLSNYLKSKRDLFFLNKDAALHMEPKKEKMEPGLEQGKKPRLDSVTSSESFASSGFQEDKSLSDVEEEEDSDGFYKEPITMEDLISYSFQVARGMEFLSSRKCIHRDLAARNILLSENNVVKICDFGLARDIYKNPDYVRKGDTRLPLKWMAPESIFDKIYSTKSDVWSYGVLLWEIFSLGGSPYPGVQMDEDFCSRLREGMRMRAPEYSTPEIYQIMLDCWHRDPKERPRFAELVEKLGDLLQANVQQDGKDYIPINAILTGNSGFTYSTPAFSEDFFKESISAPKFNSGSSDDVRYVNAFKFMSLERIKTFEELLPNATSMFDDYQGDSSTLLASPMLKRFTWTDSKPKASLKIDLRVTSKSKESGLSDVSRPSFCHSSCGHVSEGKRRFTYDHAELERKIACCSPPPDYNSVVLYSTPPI
5-hydroxytryptamine receptor 6, sequence (P50406 whole entry): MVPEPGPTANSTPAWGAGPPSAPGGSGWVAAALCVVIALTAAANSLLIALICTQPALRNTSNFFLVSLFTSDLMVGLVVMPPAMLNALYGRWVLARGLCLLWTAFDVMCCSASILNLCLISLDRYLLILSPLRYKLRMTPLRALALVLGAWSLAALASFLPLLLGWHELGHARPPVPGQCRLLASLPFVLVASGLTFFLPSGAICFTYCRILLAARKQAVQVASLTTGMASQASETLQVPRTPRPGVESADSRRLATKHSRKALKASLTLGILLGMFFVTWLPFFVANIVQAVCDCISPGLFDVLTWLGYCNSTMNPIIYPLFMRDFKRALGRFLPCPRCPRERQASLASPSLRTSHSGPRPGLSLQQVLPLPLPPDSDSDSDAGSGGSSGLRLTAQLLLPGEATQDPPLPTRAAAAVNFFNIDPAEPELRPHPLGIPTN
Matrix metalloproteinase-9, sequence (P14780 whole entry): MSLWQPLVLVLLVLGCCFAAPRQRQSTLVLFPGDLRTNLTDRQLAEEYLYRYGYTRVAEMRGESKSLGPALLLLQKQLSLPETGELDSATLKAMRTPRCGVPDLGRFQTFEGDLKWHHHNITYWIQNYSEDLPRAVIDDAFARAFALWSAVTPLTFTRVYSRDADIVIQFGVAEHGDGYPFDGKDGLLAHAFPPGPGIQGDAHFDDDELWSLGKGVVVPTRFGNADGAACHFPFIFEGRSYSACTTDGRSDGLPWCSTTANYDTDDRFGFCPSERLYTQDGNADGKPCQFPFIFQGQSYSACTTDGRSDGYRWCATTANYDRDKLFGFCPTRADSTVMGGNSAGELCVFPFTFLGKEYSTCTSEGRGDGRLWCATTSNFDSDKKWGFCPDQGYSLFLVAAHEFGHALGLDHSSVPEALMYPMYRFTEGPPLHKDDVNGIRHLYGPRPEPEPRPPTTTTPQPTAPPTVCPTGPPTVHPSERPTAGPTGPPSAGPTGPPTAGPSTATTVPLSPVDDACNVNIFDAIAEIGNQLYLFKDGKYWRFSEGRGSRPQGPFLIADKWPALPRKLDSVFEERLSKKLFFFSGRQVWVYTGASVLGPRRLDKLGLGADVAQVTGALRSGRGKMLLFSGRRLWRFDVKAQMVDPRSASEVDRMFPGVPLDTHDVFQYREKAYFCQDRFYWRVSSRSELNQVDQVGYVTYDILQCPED

CC(=O)CCCCn1c(=O)c2c(ncn2C)n(C)c1=O [PENTOXIFYLLINE]
Not Active: IC50 [1] | Ki [1] | IC50 (Calcitonin receptor) | IC50 [2] | IC50 [3] | IC50 (Thromboxane-A synthase) | IC50 [4] | IC50 [5] | IC50 [6] | IC50 [7] | Ki [7] | IC50 (Leukotriene C4 synthase) | IC50 [8] | IC50 (Adenosine receptor A1) | IC50 (Cytochrome P450 3A4) | Ki (Cytochrome P450 3A4)

O=C1NC(=O)C(c2ccccc2)(c2ccccc2)N1 [PHENYTOIN]
Not Active: IC50 [1] | Ki [1] | IC50 (Calcitonin receptor) | IC50 [2] | IC50 [3] | IC50 (Thromboxane-A synthase) | IC50 [4] | IC50 [5] | IC50 [6] | IC50 [7] | Ki [7] | IC50 (Leukotriene C4 synthase) | IC50 [8] | IC50 (Adenosine receptor A1) | IC50 (Cytochrome P450 3A4) | Ki (Cytochrome P450 3A4)

CNC(=O)Oc1ccc2c(c1)[C@]1(C)CCN(C)[C@@H]1N2C [PHYSOSTIGMINE]
Not Active: IC50 [1] | Ki [1] | IC50 (Calcitonin receptor) | IC50 [2] | IC50 [3] | IC50 (Thromboxane-A synthase) | IC50 [4] | IC50 [5] | IC50 [6] | IC50 [7] | Ki [7] | IC50 (Leukotriene C4 synthase) | IC50 [8] | IC50 (Adenosine receptor A1) | IC50 (Cytochrome P450 3A4) | Ki (Cytochrome P450 3A4)

C=C(C)[C@@H]1[C@H]2OC(=O)[C@@H]1[C@]1(O)C[C@H]3O[C@]34C(=O)O[C@H]2[C@]14C [PICROTOXININ]
Not Active: IC50 [1] | Ki [1] | IC50 (Calcitonin receptor) | IC50 [2] | IC50 [3] | IC50 (Thromboxane-A synthase) | IC50 [4] | IC50 [5] | IC50 [6] | IC50 [7] | Ki [7] | IC50 (Leukotriene C4 synthase) | IC50 [8] | IC50 (Adenosine receptor A1) | IC50 (Cytochrome P450 3A4) | Ki (Cytochrome P450 3A4)

CN1C(C(=O)Nc2ccccn2)=C(O)c2ccccc2S1(=O)=O [PIROXICAM]
Not Active: IC50 [1] | Ki [1] | IC50 (Calcitonin receptor) | IC50 [2] | IC50 [3] | IC50 (Thromboxane-A synthase) | IC50 [4] | IC50 [5] | IC50 [6] | IC50 [7] | Ki [7] | IC50 (Leukotriene C4 synthase) | IC50 [8] | IC50 (Adenosine receptor A1) | IC50 (Cytochrome P450 3A4) | Ki (Cytochrome P450 3A4)

CCC1(c2ccccc2)C(=O)NCNC1=O [PRIMIDONE]
Not Active: IC50 [1] | Ki [1] | IC50 (Calcitonin receptor) | IC50 [2] | IC50 [3] | IC50 (Thromboxane-A synthase) | IC50 [4] | IC50 [5] | IC50 [6] | IC50 [7] | Ki [7] | IC50 (Leukotriene C4 synthase) | IC50 [8] | IC50 (Adenosine receptor A1) | IC50 (Cytochrome P450 3A4) | Ki (Cytochrome P450 3A4)

CCCc1cc(=O)[nH]c(=S)[nH]1 [PROPYLTHIOURACIL]
Not Active: IC50 [1] | Ki [1] | IC50 (Calcitonin receptor) | IC50 [2] | IC50 [3] | IC50 (Thromboxane-A synthase) | IC50 [4] | IC50 [5] | IC50 [6] | IC50 [7] | Ki [7] | IC50 (Leukotriene C4 synthase) | IC50 [8] | IC50 (Adenosine receptor A1) | IC50 (Cytochrome P450 3A4) | Ki (Cytochrome P450 3A4)

COc1ccc(CN(CCN(C)C)c2ccccn2)cc1 [PYRILAMINE]
Not Active: IC50 [1] | Ki [1] | IC50 (Calcitonin receptor) | IC50 [2] | IC50 [3] | IC50 (Thromboxane-A synthase) | IC50 [4] | IC50 [5] | IC50 [6] | IC50 [7] | Ki [7] | IC50 (Leukotriene C4 synthase) | IC50 [8] | IC50 (Adenosine receptor A1) | IC50 (Cytochrome P450 3A4) | Ki (Cytochrome P450 3A4)

CARBOPLATIN
Not Active: IC50 [1] | Ki [1] | IC50 (Calcitonin receptor) | Ki (Calcitonin receptor) | IC50 [2] | Ki [2] | IC50 [3] | Ki [3] | IC50 (Thromboxane-A synthase) | Ki (Thromboxane-A synthase) | IC50 [4] | Ki [4] | IC50 [5] | Ki [5] | IC50 [6] | Ki [6] | IC50 [7] | Ki [7] | IC50 (Leukotriene C4 synthase) | Ki (Leukotriene C4 synthase) | IC50 [8] | Ki [8] | IC50 (Adenosine receptor A1) | Ki (Adenosine receptor A1) | IC50 (Cytochrome P450 3A4) | Ki (Cytochrome P450 3A4)
